Experimental data: ChEMBL document CHEMBL2390830 (Eur J Med Chem, 2013)
Calls of active or inactive are those of the source. The rule behind the calls is not given here.

Columns and labels:
[1] = biological target: T1, D(4) dopamine receptor (Homo sapiens) (UniProt P21917); test: Inhibition of dopamine D4 receptor (unknown origin) at 100 nM relative to control
T1 sequence (whole entry): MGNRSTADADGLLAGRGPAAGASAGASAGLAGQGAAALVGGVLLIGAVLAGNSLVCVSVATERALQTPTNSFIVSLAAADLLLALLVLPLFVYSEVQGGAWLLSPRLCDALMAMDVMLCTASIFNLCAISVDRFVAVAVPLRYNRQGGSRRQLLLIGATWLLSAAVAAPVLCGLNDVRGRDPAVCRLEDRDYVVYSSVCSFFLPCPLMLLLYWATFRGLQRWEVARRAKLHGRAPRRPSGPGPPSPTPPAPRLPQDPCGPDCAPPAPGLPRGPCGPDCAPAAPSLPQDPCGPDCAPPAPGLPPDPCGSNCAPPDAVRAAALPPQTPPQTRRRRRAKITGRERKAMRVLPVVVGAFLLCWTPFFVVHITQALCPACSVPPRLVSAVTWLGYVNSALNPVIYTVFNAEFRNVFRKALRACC

[2] = system: Mus musculus; test: Toxicity in CD1 mouse assessed as effect on neuromotor tonus up to 80 mg/kg, po measured for 24 hrs by Irwin test; type: organism-based; parameters: dose 80 mg/kg, route oral; details: in vivo
[3] = biological target: T2, 5-hydroxytryptamine receptor 1A (Rattus norvegicus, UniProt P19327); test: Displacement of [3H]8-OH-DPAT from 5-HT1A receptor in Wistar rat cerebral hippocampus membrane after 10 mins; type: tissue-based; details: read-out: Ki(app)
T2 sequence (P19327 whole entry): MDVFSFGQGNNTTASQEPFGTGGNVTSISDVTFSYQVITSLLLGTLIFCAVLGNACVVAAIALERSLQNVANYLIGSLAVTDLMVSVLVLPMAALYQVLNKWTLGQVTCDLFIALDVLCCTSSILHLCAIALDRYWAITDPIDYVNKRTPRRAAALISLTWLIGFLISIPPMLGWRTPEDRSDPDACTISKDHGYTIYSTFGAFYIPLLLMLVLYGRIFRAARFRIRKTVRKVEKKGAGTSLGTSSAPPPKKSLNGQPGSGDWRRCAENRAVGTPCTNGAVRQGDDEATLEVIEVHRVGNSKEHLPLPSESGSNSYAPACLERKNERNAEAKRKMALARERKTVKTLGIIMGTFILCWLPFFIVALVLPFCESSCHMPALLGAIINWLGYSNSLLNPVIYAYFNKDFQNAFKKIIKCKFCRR

[4] = system: Mus musculus; test: Toxicity in CD1 mouse assessed as effect on central activity up to 80 mg/kg, po measured for 24 hrs by Irwin test; type: organism-based; parameters: dose 80 mg/kg, route oral; details: in vivo
[5] = biological target: T3, 5-hydroxytryptamine receptor 2B (Homo sapiens, UniProt P41595); test: Inhibition of human 5-HT2B receptor
T3 sequence (P41595 whole entry): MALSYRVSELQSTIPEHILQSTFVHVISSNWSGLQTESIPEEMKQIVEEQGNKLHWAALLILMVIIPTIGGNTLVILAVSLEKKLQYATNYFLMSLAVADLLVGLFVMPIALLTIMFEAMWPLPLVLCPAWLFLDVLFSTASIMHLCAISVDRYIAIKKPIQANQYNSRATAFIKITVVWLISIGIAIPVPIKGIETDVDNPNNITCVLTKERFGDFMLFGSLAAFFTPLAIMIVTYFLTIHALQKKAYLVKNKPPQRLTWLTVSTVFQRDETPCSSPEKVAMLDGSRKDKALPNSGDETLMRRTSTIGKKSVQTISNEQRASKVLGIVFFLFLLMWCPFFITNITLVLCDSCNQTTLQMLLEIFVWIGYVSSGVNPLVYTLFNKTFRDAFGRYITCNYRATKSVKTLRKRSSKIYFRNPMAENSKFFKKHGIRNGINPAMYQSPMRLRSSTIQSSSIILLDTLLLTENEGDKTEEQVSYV

[6] = biological target: T3, 5-hydroxytryptamine receptor 2B; test: Inhibition of human 5-HT2B receptor at 100 nM relative to control
[7] = Cmax in CD1 mouse at 10 mg/kg, po; type: ADME, organism-based; parameters: dose 10 mg/kg, route oral; details: in vivo
[8] = system: Mus musculus; test: Toxicity in CD1 mouse assessed as effect on neurovegetative reflexes up to 80 mg/kg, po measured for 24 hrs by Irwin test; type: organism-based; parameters: dose 80 mg/kg, route oral; details: in vivo
[9] = biological target: T4, 5-hydroxytryptamine receptor 1A (Homo sapiens) (UniProt P08908); test: Antagonist activity at human 5-HT1A receptor transfected in CHO cells assessed as reversal of 8-OH-DPAT-induced cAMP reduction; type: functional, cell-based
T4 sequence (whole entry): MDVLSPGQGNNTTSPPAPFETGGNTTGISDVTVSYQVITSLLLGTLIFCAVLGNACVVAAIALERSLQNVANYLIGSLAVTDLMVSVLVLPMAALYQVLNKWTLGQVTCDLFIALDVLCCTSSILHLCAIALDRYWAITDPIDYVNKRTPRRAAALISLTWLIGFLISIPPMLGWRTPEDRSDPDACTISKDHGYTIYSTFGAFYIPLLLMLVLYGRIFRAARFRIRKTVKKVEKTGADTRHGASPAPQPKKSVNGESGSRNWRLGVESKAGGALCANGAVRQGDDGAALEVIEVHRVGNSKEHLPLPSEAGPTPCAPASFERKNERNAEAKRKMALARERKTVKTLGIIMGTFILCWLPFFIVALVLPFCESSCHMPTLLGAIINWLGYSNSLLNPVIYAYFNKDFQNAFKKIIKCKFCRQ

[10] = Tmax in CD1 mouse at 10 mg/kg, po; type: ADME, organism-based; parameters: dose 10 mg/kg, route oral; details: in vivo
[11] = biological target: T5, 5-hydroxytryptamine receptor 7 (Homo sapiens, UniProt P34969); test: Inhibition of human 5-HT7 receptor at 100 nM relative to control
T5 sequence (P34969 whole entry): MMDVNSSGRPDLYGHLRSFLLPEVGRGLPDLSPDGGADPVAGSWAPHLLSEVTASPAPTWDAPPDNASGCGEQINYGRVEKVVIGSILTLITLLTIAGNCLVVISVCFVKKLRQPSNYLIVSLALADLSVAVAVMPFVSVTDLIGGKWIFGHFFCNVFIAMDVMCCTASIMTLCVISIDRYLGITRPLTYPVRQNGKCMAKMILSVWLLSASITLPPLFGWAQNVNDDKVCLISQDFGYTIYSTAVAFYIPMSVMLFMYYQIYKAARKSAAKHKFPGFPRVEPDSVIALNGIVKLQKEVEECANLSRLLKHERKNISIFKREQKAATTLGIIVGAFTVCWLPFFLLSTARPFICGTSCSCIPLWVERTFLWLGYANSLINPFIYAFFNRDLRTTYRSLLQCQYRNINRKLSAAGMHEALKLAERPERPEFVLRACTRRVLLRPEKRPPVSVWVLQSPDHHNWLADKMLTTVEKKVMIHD

[12] = AUCinfinity in CD1 mouse at 2 mg/kg, iv; type: ADME, organism-based; parameters: time infinity, dose 2 mg/kg, route intravenous; details: plasma
[13] = biological target: T5, 5-hydroxytryptamine receptor 7; test: Inhibition of human 5-HT7 receptor at 10 nM relative to control
[14] = biological target: T6, D(4) dopamine receptor (Homo sapiens, UniProt P21917); test: Inhibition of dopamine D4 receptor (unknown origin)
T6 sequence (P21917 whole entry): T1 sequence (whole entry)

[15] = Apparent volume of distribution in CD1 mouse at 2 mg/kg, iv; type: ADME, organism-based; parameters: dose 2 mg/kg, route intravenous; details: in vivo, read-out: Vz
[16] = Clearance in CD1 mouse at 2 mg/kg, iv; type: ADME, organism-based; parameters: dose 2 mg/kg, route intravenous; details: in vivo
[17] = AUC (0 to t) in CD1 mouse at 10 mg/kg, po; type: ADME, organism-based; parameters: dose 10 mg/kg, route oral; details: plasma
[18] = biological target: T7, D(2) dopamine receptor (Homo sapiens, UniProt P14416); test: Inhibition of human recombinant dopamine D2S receptor expressed in HEK293 cells; type: cell-based
T7 sequence (P14416 whole entry): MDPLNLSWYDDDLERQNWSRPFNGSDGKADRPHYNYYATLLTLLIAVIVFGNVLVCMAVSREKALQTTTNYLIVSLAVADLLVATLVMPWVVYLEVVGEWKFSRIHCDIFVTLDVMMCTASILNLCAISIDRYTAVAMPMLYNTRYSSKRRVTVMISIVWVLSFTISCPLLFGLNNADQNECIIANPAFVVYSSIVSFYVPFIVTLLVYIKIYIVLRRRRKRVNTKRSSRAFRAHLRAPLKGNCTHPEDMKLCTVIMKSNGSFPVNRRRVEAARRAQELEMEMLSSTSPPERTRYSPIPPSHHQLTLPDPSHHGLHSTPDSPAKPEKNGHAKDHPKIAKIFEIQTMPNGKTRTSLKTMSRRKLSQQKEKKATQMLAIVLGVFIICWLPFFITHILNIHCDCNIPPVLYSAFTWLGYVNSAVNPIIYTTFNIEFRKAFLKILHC

[19] = system: Mus musculus; test: Toxicity in CD1 mouse assessed as effect on autonomic system up to 80 mg/kg, po measured for 24 hrs by Irwin test; type: organism-based; parameters: dose 80 mg/kg, route oral; details: in vivo
[20] = biological target: T8, D(3) dopamine receptor (Homo sapiens, UniProt P35462); test: Inhibition of human dopamine D3 receptor at 10 nM relative to control
T8 sequence (P35462 whole entry): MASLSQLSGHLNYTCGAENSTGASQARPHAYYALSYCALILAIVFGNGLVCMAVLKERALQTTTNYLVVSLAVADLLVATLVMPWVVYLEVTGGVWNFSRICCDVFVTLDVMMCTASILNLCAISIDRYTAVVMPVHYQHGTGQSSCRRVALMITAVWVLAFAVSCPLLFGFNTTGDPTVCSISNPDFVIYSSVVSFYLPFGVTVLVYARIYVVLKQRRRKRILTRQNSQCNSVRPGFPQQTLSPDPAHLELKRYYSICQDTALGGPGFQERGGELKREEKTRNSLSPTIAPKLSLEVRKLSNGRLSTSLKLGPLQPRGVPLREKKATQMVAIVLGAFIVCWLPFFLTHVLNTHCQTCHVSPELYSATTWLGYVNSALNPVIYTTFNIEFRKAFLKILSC

[21] = biological target: T8, D(3) dopamine receptor; test: Inhibition of human dopamine D3 receptor at 100 nM relative to control
[22] = biological target: T3, 5-hydroxytryptamine receptor 2B; test: Inhibition of human 5-HT2B receptor at 10 nM relative to control
[23] = Half life in CD1 mouse at 10 mg/kg, po; type: ADME, organism-based; parameters: dose 10 mg/kg, route oral; details: in vivo
[24] = AUC (0 to t) in CD1 mouse at 2 mg/kg, iv; type: ADME, organism-based; parameters: dose 2 mg/kg, route intravenous; details: plasma
[25] = system: Mus musculus; test: Toxicity in CD1 mouse assessed as effect on central reactivity up to 80 mg/kg, po measured for 24 hrs by Irwin test; type: organism-based; parameters: dose 80 mg/kg, route oral; details: in vivo
[26] = biological target: T7, D(2) dopamine receptor; details: HEK293, 100 nM
[27] = AUCinfinity in CD1 mouse at 10 mg/kg, po; type: ADME, organism-based; parameters: time infinity, dose 10 mg/kg, route oral; details: plasma
[28] = Oral bioavailability in CD1 mouse at 10 mg/kg; type: ADME, organism-based; details: in vivo
[29] = biological target: T8, D(3) dopamine receptor; test: Inhibition of human dopamine D3 receptor
[30] = biological target: T7, D(2) dopamine receptor; details: HEK293, 10 nM
[31] = biological target: T1, D(4) dopamine receptor (Homo sapiens); test: Inhibition of dopamine D4 receptor (unknown origin) at 10 nM relative to control
[32] = biological target: T5, 5-hydroxytryptamine receptor 7; test: Inhibition of human 5-HT7 receptor
[33] = Half life in CD1 mouse at 2 mg/kg, iv; type: ADME, organism-based; parameters: dose 2 mg/kg, route intravenous; details: in vivo
[34] = biological target: T4, 5-hydroxytryptamine receptor 1A (Homo sapiens); test: Agonist activity at human 5-HT1A receptor transfected in CHO cells assessed as inhibition of forskolin-induced cAMP accumulation at 100 nM relative to control; type: functional, cell-based
[35] = biological target: T3, 5-hydroxytryptamine receptor 2B; test: Binding affinity to human 5-HT2B receptor by radioligand displacement assay

Row | SMILES | inhibition [1] | Activity [2] | Ki [3] | Activity [4] | IC50 [5] | inhibition [6] | Cmax [7] | Activity [8] | Activity [9] | Tmax [10] | inhibition [11] | AUC(0-inf) [12] | inhibition [13] | IC50 [14] | Vd [15] | clearance [16] | AUC(0-t) [17] | IC50 [18] | Activity [19] | inhibition [20] | also measured
1 | COc1ccccc1N1CCN(CCCCCN2Cc3ccc4ccccc4c3C2=O)CC1 | 60% | Non-toxic | 0.0016 µM | Non-toxic | 0.043 µM | 70% | 56 ng/mL | Non-toxic | inactive | 0.3 h | 65% | 210 ng·h/mL | 18% | 0.065 µM | 17.6 L/kg | 159 mL/min/kg | 212 ng·h/mL | 0.0035 µM | Non-toxic | 39% | inhibition [21]: 86%; inhibition [22]: 28%; half-life [23]: 4.7 h; AUC(0-t) [24]: 207 ng·h/mL; Activity [25]: Non-toxic; inhibition [26]: 90%; AUC(0-inf) [27]: 325 ng·h/mL; bioavailability [28]: 20%; IC50 [29]: 0.024 µM; inhibition [30]: 74%; inhibition [31]: 13%; IC50 [32]: 0.062 µM; half-life [33]: 1.3 h; inhibition [34]: 63%
2 | COc1ccccc1N1CCN(CCCCCN2Cc3c(Cl)nc4ccccc4c3C2=O)CC1 | 28% | Non-toxic | 0.0017 µM | Non-toxic | 0.063 µM | 65% | 35 ng/mL | Non-toxic | inactive | 1 h | 42% | 76 ng·h/mL | 24% | > 0.1 µM | 58.7 L/kg | 440 mL/min/kg | 157 ng·h/mL | > 0.1 µM | Non-toxic | 38% | inhibition [21]: 74%; inhibition [22]: 18%; half-life [23]: 4.5 h; AUC(0-t) [24]: 70 ng·h/mL; Activity [25]: Non-toxic; inhibition [26]: 26%; AUC(0-inf) [27]: 239 ng·h/mL; bioavailability [28]: 45%; IC50 [29]: 0.031 µM; inhibition [31]: 10%; IC50 [32]: > 0.1 µM; half-life [33]: 1.5 h; inhibition [34]: 60%
3 | COc1cc(CC(C)N)c(OC)cc1I (racemic) |  |  |  |  |  |  |  |  |  |  |  |  |  |  |  |  |  |  |  |  | IC50 [35]: 0.004 µM
